The values below come from US11857637B2, “Anti-CD25 antibody-maytansine conjugates and methods of use thereof” (priority 2019, dated 2024).

Test [1] concerns CD25-positive leukemia and lymphoma cell lines, SU-DHL-1, HDLM-2, EoL-1, L-540, and Karpas 299. Description: In vitro cytotoxicity, range over the five cell lines. It counts as cell-based. The settings on record: read-out: IC50 concentrations (range across assays). On the procedure: (§1) The CD25-positive leukemia and lymphoma cell lines, SU-DHL-1, HDLM-2, EoL-1, L-540, and Karpas 299, were obtained from the ATCC and DSMZ cell banks, or were tested at Crown Bioscience, Inc. The cells were maintained in RPMI-1640 medium (Cellgro) supplemented with 10 or 20% fetal bovine serum (Invitrogen) and Glutamax (Invitrogen). 24 h prior to plating, cells were passaged to ensure log-phase growth. On the day of plating, 5000 cells/well were seeded onto 96-well plates in 100 μL normal growth medium supplemented with 10 IU penicillin and 10 μg/mL streptomycin (Cellgro). Cells were treated at various concentrations with 20 μL of diluted analytes, and the plates were incubated at 37° C. in an atmosphere of 5% CO2. After 5 d, 100 μL/well of Cell Titer-Glo reagent (Promega) was added, and luminescence was measured using a Molecular Devices SpectraMax M5 plate reader. GraphPad Prism software was used for data analysis.

The test system of another test is Karpas 299 xenograft. The test is described as follows: Karpas 299 xenograft study. In kind it is in vivo, Female CB17.SCID mice. Conditions: 10 mg/kg intravenously, single dose or qwk×4; at 28 days; subcutaneous Karpas 299 tumors, FIG. 11. On the procedure:
Female CB17.SCID mice (6/group) were inoculated subcutaneously with 5×10^6 Karpas 299 cells. Treatment began when the tumors reached an average of 205 mm^3, at which time the animals were dosed intravenously with vehicle alone or the anti-CD25 HIPS-4AP-maytansine conjugate (10 mg/kg). One group received a single dose of the anti-CD25 HIPS-4AP-maytansine conjugate, while another group was dosed once per week for a total of four doses (qwk×4). The animals were monitored twice weekly for body weight and tumor size. Animals were euthanized when tumors reached 2000 mm^3.

Another test concerns SU-DHL-1 cells. The test is described as follows: In vitro cytotoxicity (Cell Titer-Glo, 5 d). In kind it is cell-based. Conditions: SU-DHL-1 cell line, 5 d incubation, FIG. 6. The method, then: as §1
(Cellular ATP, detected with luciferase, serves as a proxy for viable cell number.)

Another test deals with EoL-1 cells. The test is described as follows: In vitro cytotoxicity (Cell Titer-Glo, 5 d). In kind it is cell-based. The settings on record: EoL-1 cell line, 5 d incubation, FIG. 8. The method, then: as §1
The next test has as its system Karpas 299 cells. The test is described as follows: In vitro cytotoxicity (Cell Titer-Glo, 5 d). It counts as cell-based. The settings on record: Karpas 299 cell line, 5 d incubation, FIG. 10. The method, then: as §1
In another test the test system is HDLM-2 cells. The test is described as follows: In vitro cytotoxicity (Cell Titer-Glo, 5 d). It counts as cell-based. Conditions: HDLM-2 cell line, 5 d incubation, FIG. 7. The method, then:
as §1

The next test deals with L-540 cells. Description: In vitro cytotoxicity (Cell Titer-Glo, 5 d). It counts as cell-based. The settings on record: L-540 cell line, 5 d incubation, FIG. 9. The method, then: as §1

Where two headings read alike, the source gives them in different places.

`COc1cc2cc(c1Cl)N(C)C(=O)C[C@H](OC(=O)[C@H](C)N(C)C(C)=O)[C@]1(C)O[C@H]1[C@H](C)[C@@H]1C[C@@](O)(NC(=O)O1)[C@H](OC)/C=C/C=C(\C)C2` [free maytansine, maytansine]: in test [1] (120 h), the IC50 lay within 0.03 to 0.19 nM.
Turning to “anti-CD25 HIPS-4AP-maytansine conjugate: C-terminally aldehyde-tagged anti-CD25 antibody (daclizumab) conjugated to a maytansine payload attached to a HIPS-4AP linker; DAR 1.75-1.84”, the “detectable tumors at median time to endpoint of vehicle control groups” value in the test with Karpas 299 xenograft is listed as “none of the animals that had been dosed with the anti-CD25 HIPS-4AP-maytansine conjugate had detectable tumors”. Moreover, the IC50 was 0.06 to 0.49 nM in test [1] (range over all five tested cell lines, 5 d incubation); 0.24 nM in the test with SU-DHL-1 cells; 0.07 nM with EoL-1 cells; 0.49 nM in the test with Karpas 299 cells; 0.06 nM with HDLM-2 cells; 0.43 nM in the test on L-540 cells.
